33 compounds from US12336981B2, “Compounds and compositions for the inhibition of NAMPT” (Valo Health, Inc., priority 2010, dated 2025) can be followed below.

One assay has as its target T1, NAMPT (Homo sapiens, UniProt P43490).
T1 construct: His tag; host or cells: E. coli
The experiment in a line: Biochemical inhibition assay: NAMPT enzymatic reaction, NMN quantified by mass spectrometry. The settings on record: NAMPT enzymatic reaction; read-out: Biochem IC50. The gist of the method:
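Inhibition of E. coli-expressed His-tagged human NAMPT, measured as NMN formation by mass spectrometry after a 30 min room-temperature reaction containing 1 μM NAM, 100 μM PRPP and 2.5 mM ATP.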

Another assay relates to A2780 cells. The experiment in a line: In-vitro cell proliferation assay (SRB), A2780 cells. The format is cell-based. The settings on record: Homo sapiens, A2780, 72 h, A2780 cells, 72 hours, read-out: A2780 IC50. Summed up:
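SRB read-out: 6% TCA fix 1 h at 4° C., stain, Tris solubilize, A570. Media-only background subtracted; % inhibition from two compound concentrations.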

Read-outs that look alike come from different tables or passages of the source.

T1 sequence (P43490 whole entry): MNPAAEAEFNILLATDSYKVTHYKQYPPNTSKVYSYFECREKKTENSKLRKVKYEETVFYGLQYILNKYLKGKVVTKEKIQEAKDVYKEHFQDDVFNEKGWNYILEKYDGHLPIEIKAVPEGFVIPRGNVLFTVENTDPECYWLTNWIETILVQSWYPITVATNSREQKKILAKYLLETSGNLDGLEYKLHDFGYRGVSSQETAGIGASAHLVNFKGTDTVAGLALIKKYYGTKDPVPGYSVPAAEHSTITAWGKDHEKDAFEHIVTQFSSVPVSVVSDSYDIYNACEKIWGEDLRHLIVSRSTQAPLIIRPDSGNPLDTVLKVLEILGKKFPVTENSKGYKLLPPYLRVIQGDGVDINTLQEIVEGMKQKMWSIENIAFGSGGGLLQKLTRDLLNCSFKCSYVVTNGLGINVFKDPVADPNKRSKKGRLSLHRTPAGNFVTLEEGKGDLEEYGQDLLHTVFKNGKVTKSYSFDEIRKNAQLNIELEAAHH

On to `Cc1ccc(S(=O)(=O)c2ccc(CNC(=O)c3cc4cnccc4[nH]3)cc2)c(F)c1` [N-({4-[(2-fluoro-4-methylbenzene)sulfonyl]phenyl}methyl)-1H-pyrrolo[3,2-c]pyridine-2-carboxamide], for which the IC50 at NAMPT was found to be 0.011 µM; with A2780 cells (SRB assay), 0.021 µM.
On to `Cc1ccc(S(=O)(=O)c2ccc(CNC(=O)c3ccc4nccn4c3)cc2)c(F)c1` [N-({4-[(2-fluoro-4-methylbenzene)sulfonyl]phenyl}methyl)imidazo[1,2-a]pyridine-6-carboxamide], for which the IC50 worked out at 0.0214 µM at NAMPT and 0.0247 µM in the assay with A2780 cells (SRB).
Regarding `Cc1ccc(S(=O)(=O)c2ccc(CNC(=O)c3cc4ccncc4s3)cc2)c(F)c1` [N-({4-[(2-fluoro-4-methylbenzene)sulfonyl]phenyl}methyl)thieno[2,3-c]pyridine-2-carboxamide], the half-maximal inhibitory concentration (IC50) on NAMPT stood at 0.008 µM; in the assay on A2780 cells (SRB assay), 0.0207 µM.
Consider `COc1ccc(F)c(S(=O)(=O)c2ccc(CNC(=O)c3cnc4[nH]ncc4c3)cc2)c1` [N-({4-[(2-fluoro-5-methoxybenzene)sulfonyl]phenyl}methyl)-1H-pyrazolo[3,4-b]pyridine-5-carboxamide], for which the IC50 is 0.139 µM at NAMPT and 0.1 to 1 µM with A2780 cells (SRB).
On to `Cc1ccc(F)c(S(=O)(=O)c2ccc(CNC(=O)c3cc4cnccc4[nH]3)cc2)c1` [N-({4-[(2-fluoro-5-methylbenzene)sulfonyl]phenyl}methyl)-1H-pyrrolo[3,2-c]pyridine-2-carboxamide], for which the results for the IC50 at NAMPT and in the assay on A2780 cells (SRB assay) were 0.025 µM and 0.024 µM, respectively.
Take `COc1cccc(F)c1S(=O)(=O)c1ccc(CNC(=O)c2ccc3nccn3c2)cc1` [N-({4-[(2-fluoro-6-methoxybenzene)sulfonyl]phenyl}methyl)imidazo[1,2-a]pyridine-6-carboxamide]: the concentration for half-maximal inhibition (IC50) turned out to be 0.0481 µM at NAMPT and 0.0264 µM in the assay with A2780 cells (SRB).
Taken in the same sequence, the figures for `O=C(NCc1ccc(S(=O)(=O)c2ccccc2F)cc1)c1cc2ccncc2o1` [N-({4-[(2-fluorobenzene)sulfonyl]phenyl}methyl)furo[2,3-c]pyridine-2-carboxamide] were 0.0418 µM and 0.1 to 1 µM.
For the compound `CS(=O)(=O)Nc1ccccc1S(=O)(=O)c1ccc(CNC(=O)c2cc3cnccc3[nH]2)cc1` [N-({4-[(2-methanesulfonamidobenzene)sulfonyl]phenyl}methyl)-1H-pyrrolo[3,2-c]pyridine-2-carboxamide], the IC50 on NAMPT is 0.284 µM; with A2780 cells (SRB assay), more than 1 µM.
`COc1ccc(C)cc1S(=O)(=O)c1ccc(CNC(=O)c2cnc3[nH]ncc3c2)cc1` [N-({4-[(2-methoxy-5-methylbenzene)sulfonyl]phenyl}methyl)-1H-pyrazolo[3,4-b]pyridine-5-carboxamide]: the values for the IC50 at NAMPT and in the assay with A2780 cells (SRB) were 0.0563 µM and 0.0244 µM, respectively.
As to `COc1ccc(C)cc1S(=O)(=O)c1ccc(CNC(=O)c2cc3cnccc3[nH]2)cc1` [N-({4-[(2-methoxy-5-methylbenzene)sulfonyl]phenyl}methyl)-1H-pyrrolo[3,2-c]pyridine-2-carboxamide], the half-inhibitory concentration (IC50) is 0.012 µM at NAMPT and 0.003 µM in the assay with A2780 cells (SRB assay).
For `COc1ccc(C)cc1S(=O)(=O)c1ccc(CNC(=O)c2ccc3nccn3c2)cc1` [N-({4-[(2-methoxy-5-methylbenzene)sulfonyl]phenyl}methyl)imidazo[1,2-a]pyridine-6-carboxamide], the IC50 was 0.0431 µM on NAMPT and 0.0117 µM in the assay with A2780 cells (SRB).
With `COc1ccc(C)cc1S(=O)(=O)c1ccc(CNC(=O)c2cc3ccncc3s2)cc1` [N-({4-[(2-methoxy-5-methylbenzene)sulfonyl]phenyl}methyl)thieno[2,3-c]pyridine-2-carboxamide], the half-maximal inhibitory concentration (IC50) at NAMPT is 0.006 µM; in the assay on A2780 cells (SRB assay), 0.0025 µM.
Taken in the same sequence, the figures for `COc1cccc(C)c1NS(=O)(=O)c1ccc(CNC(=O)c2cc3cnccc3[nH]2)cc1` [N-({4-[(2-methoxy-6-methylphenyl)sulfamoyl]phenyl}methyl)-1H-pyrrolo[3,2-c]pyridine-2-carboxamide] were 0.006 µM and 12.4 µM.
Consider `COc1ccccc1S(=O)(=O)c1ccc(CNC(=O)c2cnc3[nH]ncc3c2)cc1` [N-({4-[(2-methoxybenzene)sulfonyl]phenyl}methyl)-1H-pyrazolo[3,4-b]pyridine-5-carboxamide], for which the results for the IC50 on NAMPT and with A2780 cells (SRB) were 0.0683 µM and 0.0618 µM, respectively.
For the compound `COc1ccccc1S(=O)(=O)c1ccc(CNC(=O)c2cc3cnccc3[nH]2)cc1` [N-({4-[(2-methoxybenzene)sulfonyl]phenyl}methyl)-1H-pyrrolo[3,2-c]pyridine-2-carboxamide], the half-maximal inhibitory concentration (IC50) was found to be 0.009 µM on NAMPT and 0.007 µM in the assay with A2780 cells (SRB assay).
As to `COc1ccccc1S(=O)(=O)c1ccc(CNC(=O)c2cc3ccncc3o2)cc1` [N-({4-[(2-methoxybenzene)sulfonyl]phenyl}methyl)furo[2,3-c]pyridine-2-carboxamide], the IC50 amounted to 0.0189 µM at NAMPT and 0.0265 µM with A2780 cells (SRB).
Consider `COc1ccccc1S(=O)(=O)c1ccc(CNC(=O)c2ccc3nccn3c2)cc1` [N-({4-[(2-methoxybenzene)sulfonyl]phenyl}methyl)imidazo[1,2-a]pyridine-6-carboxamide], for which the IC50 on NAMPT is 0.0265 µM; in the assay on A2780 cells (SRB) it was 0.0153 µM.
As for `COc1ccccc1S(=O)(=O)c1ccc(CNC(=O)c2cnc3nccn3c2)cc1` [N-({4-[(2-methoxybenzene)sulfonyl]phenyl}methyl)imidazo[1,2-a]pyrimidine-6-carboxamide], the figures for the IC50 on NAMPT and in the assay with A2780 cells (SRB) were 0.0039 µM and 0.0747 µM, respectively.
For `COc1ccccc1S(=O)(=O)c1ccc(CNC(=O)c2cc3ccncc3s2)cc1` [N-({4-[(2-methoxybenzene)sulfonyl]phenyl}methyl)thieno[2,3-c]pyridine-2-carboxamide], the half-maximal inhibitory concentration (IC50) on NAMPT stood at 0.007 µM; in the assay with A2780 cells (SRB assay) it was 0.0053 µM.
Regarding `COc1ccccc1NS(=O)(=O)c1ccc(CNC(=O)c2cc3cnccc3[nH]2)cc1` [N-({4-[(2-methoxyphenyl)sulfamoyl]phenyl}methyl)-1H-pyrrolo[3,2-c]pyridine-2-carboxamide], the IC50 was found to be 0.089 µM on NAMPT and 2.15 µM in the assay on A2780 cells (SRB assay).
With `CCCOc1ccc(S(=O)(=O)c2ccc(CNC(=O)c3cc4ccncc4s3)cc2)c(C)c1` [N-({4-[(2-methyl-4-propoxybenzene)sulfonyl]phenyl}methyl)thieno[2,3-c]pyridine-2-carboxamide], the 50% inhibitory concentration (IC50) at NAMPT is 0.0129 µM; in the assay on A2780 cells (SRB), 0.0017 µM.
`Cc1ccccc1S(=O)(=O)c1ccc(CNC(=O)c2cnc3[nH]ncc3c2)cc1` [N-({4-[(2-methylbenzene)sulfonyl]phenyl}methyl)-1H-pyrazolo[3,4-b]pyridine-5-carboxamide]: the IC50 is 0.0926 µM at NAMPT and 0.1 to 1 µM in the assay with A2780 cells (SRB).
With `Cc1ccccc1S(=O)(=O)c1ccc(CNC(=O)c2cc3cnccc3[nH]2)cc1` [N-({4-[(2-methylbenzene)sulfonyl]phenyl}methyl)-1H-pyrrolo[3,2-c]pyridine-2-carboxamide], the IC50 on NAMPT was 0.014 µM; with A2780 cells (SRB assay) it was 0.013 µM.
On to `Cc1ccccc1S(=O)(=O)c1ccc(CNC(=O)c2cc3ccncc3o2)cc1` [N-({4-[(2-methylbenzene)sulfonyl]phenyl}methyl)furo[2,3-c]pyridine-2-carboxamide], for which the half-inhibitory concentration (IC50) at NAMPT was 0.0152 µM; with A2780 cells (SRB) it was 0.0433 µM.
On to `Cc1ccccc1S(=O)(=O)c1ccc(CNC(=O)c2ccc3nccn3c2)cc1` [N-({4-[(2-methylbenzene)sulfonyl]phenyl}methyl)imidazo[1,2-a]pyridine-6-carboxamide], for which the IC50 was determined as 0.0669 µM at NAMPT and 0.0912 µM in the assay with A2780 cells (SRB).
`Cc1ccccc1S(=O)(=O)c1ccc(CNC(=O)c2cc3ccncc3s2)cc1` [N-({4-[(2-methylbenzene)sulfonyl]phenyl}methyl)thieno[2,3-c]pyridine-2-carboxamide]: the IC50 on NAMPT was 0.01 µM; in the assay with A2780 cells (SRB assay), 0.0222 µM.
Regarding `O=C(NCc1ccc(S(=O)(=O)c2ccccc2Oc2ccccc2)cc1)c1cnc2[nH]ncc2c1` [N-({4-[(2-phenoxybenzene)sulfonyl]phenyl}methyl)-1H-pyrazolo[3,4-b]pyridine-5-carboxamide], the IC50 on NAMPT and in the assay on A2780 cells (SRB) was 0.1 to 1 µM throughout.
With `O=C(NCc1ccc(S(=O)(=O)c2ccccc2Oc2ccccc2)cc1)c1cc2cnccc2[nH]1` [N-({4-[(2-phenoxybenzene)sulfonyl]phenyl}methyl)-1H-pyrrolo[3,2-c]pyridine-2-carboxamide], the IC50 on NAMPT was 0.011 µM; with A2780 cells (SRB assay), 0.007 µM.
Turning to `O=C(NCc1ccc(S(=O)(=O)c2ccccc2Oc2ccccc2)cc1)c1ccc2nccn2c1` [N-({4-[(2-phenoxybenzene)sulfonyl]phenyl}methyl)imidazo[1,2-a]pyridine-6-carboxamide], the IC50 is 0.0636 µM at NAMPT and 0.0607 µM in the assay on A2780 cells (SRB).
Take `O=C(NCc1ccc(S(=O)(=O)c2ccccc2Oc2ccccc2)cc1)c1cc2ccncc2s1` [N-({4-[(2-phenoxybenzene)sulfonyl]phenyl}methyl)thieno[2,3-c]pyridine-2-carboxamide]: the values for the IC50 at NAMPT and in the assay on A2780 cells (SRB assay) were 0.011 µM and 0.0697 µM, respectively.
Regarding `O=C(NCc1ccc(S(=O)(=O)Nc2ccccc2Oc2ccccc2)cc1)c1cc2cnccc2[nH]1` [N-({4-[(2-phenoxyphenyl)sulfamoyl]phenyl}methyl)-1H-pyrrolo[3,2-c]pyridine-2-carboxamide], the IC50 at NAMPT worked out at 4.02 µM; in the assay on A2780 cells (SRB assay), 12 µM.
Consider `O=C(NCc1ccc(S(=O)(=O)CCc2ccccc2)cc1)C1=Nc2ccncc2C1` [N-({4-[(2-phenylethane)sulfonyl]phenyl}methyl)-1H-pyrrolo[3,2-c]pyridine-2-carboxamide], for which the IC50 at NAMPT came to 0.011 µM; in the assay on A2780 cells (SRB assay), 0.022 µM.
Taken in the same sequence, the figures for `CCCOc1ccccc1NS(=O)(=O)c1ccc(CNC(=O)c2cc3cnccc3[nH]2)cc1` [N-({4-[(2-propoxyphenyl)sulfamoyl]phenyl}methyl)-1H-pyrrolo[3,2-c]pyridine-2-carboxamide] were 0.052 µM and 0.1 µM.

The IC50 is the concentration that inhibits the measured activity by half.
